Assay results as given in patent US8906928B2, “Substituted pyrazolo-pyrrolo-pyridine-dione compounds” (ArQule, Inc., priority 2009, dated 2014).

Assays:
Assay type in all cases: cell-based
PACA-2 = test: MTS assay (cell growth inhibition), PACA-2; settings: PACA-2 cells, 72 hours incubation with test compound; concentration not given
Method: (§1) Cells were maintained at 37° C., 5% CO2 in DMEM media supplemented with 1% fetal bovine serum, penicillin/streptomycin and fungizone (Invitrogen). Cells were seeded into 96-well tissue culture plates at 3000 per well and cultured at 37° C. for 18 hours. Test compounds were dissolved and diluted to 300× in DMSO then diluted 1:40 in DMEM. Cells were incubated with test compounds for 72 hours followed by incubation with tetrazolium compound (3-(4,5-dimethylthiazol-2-yl)-5-(3-carboxymethoxyphenyl)-2-(4-sulfophenyl)-2H-tetrazolium, inner salt; MTS) and the electron coupling reagent, phenazine methosulfate (PMS) for 4 hours. […] The ability of compounds to inhibit cell growth in this assay is correlated with the reduction of dehydrogenase enzyme activity found in metabolically active cells. The measurement of the absorbance of the formazan was assessed using an ENVISION™ (Perkin Elmer) microplate reader at 492 nm. The calculated IC50 value is the concentration of the test compound that causes a 50% decrease in the absorbance.

NCI-H1299 = test: MTS assay (cell growth inhibition), NCI-H1299; settings: NCI-H1299 cells, 72 hours incubation with test compound; concentration not given
Method: as §1

DLD-1 = test: MTS assay (cell growth inhibition), DLD-1; settings: DLD-1 cells, 72 hours incubation with test compound; concentration not given
Method: as §1

PC-3 = test: MTS assay (cell growth inhibition), PC-3; settings: PC-3 cells, 72 hours incubation with test compound; concentration not given
Method: as §1

MDA-MB = test: MTS assay (cell growth inhibition), MDA-MB; settings: MDA-MB cells, 72 hours incubation with test compound; concentration not given
Method: as §1

Kato III = test: MTS assay (cell growth inhibition), Kato III; settings: Kato III cells, 72 hours incubation with test compound; concentration not given
Method: as §1

Row | Structure (SMILES) | MTS CELL KILL DATA (% INHIBITION) PACA-2 (PACA-2) | MTS CELL KILL DATA (% INHIBITION) NCI-H1299 (NCI-H1299) | MTS CELL KILL DATA (% INHIBITION) DLD-1 (DLD-1) | MTS CELL KILL DATA (% INHIBITION) PC-3 (PC-3) | MTS CELL KILL DATA (% INHIBITION) MDA-MB (MDA-MB) | MTS CELL KILL DATA (% INHIBITION) Kato III (Kato III)
1 | O=C1c2cnc3[nH]ncc3c2C(=O)N1Cc1c(F)ccc(Cl)c1F [Example 34, 7-(3-chloro-2,6-difluorobenzyl)pyrazolo[3,4-b]pyrrolo[3,4-d]pyridine-6,8(3H,7H)-dione] | A (A = 80-100% INHIBITION) | A (A = 80-100% INHIBITION) | A (A = 80-100% INHIBITION) | A (A = 80-100% INHIBITION) | A (A = 80-100% INHIBITION) | A (A = 80-100% INHIBITION)
2 | O=C1c2cnc3[nH]ncc3c2C(=O)N1CC1C[C@H]2CC[C@@H]1C2 (stereo partly drawn) [Example 35, 7-[(1R,4S)-bicyclo[2.2.1]hept-2-ylmethyl]pyrazolo[3,4-b]pyrrolo[3,4-d]pyridine-6,8(3H,7H)-dione] | C (C = <50% INHIBITION) | C (C = <50% INHIBITION) | C (C = <50% INHIBITION) | C (C = <50% INHIBITION) | C (C = <50% INHIBITION) | C (C = <50% INHIBITION)
3 | O=C1c2cnc3[nH]ncc3c2C(=O)N1CCc1ccncc1 [Example 36, 7-(2-pyridin-4-ylethyl)pyrazolo[3,4-b]pyrrolo[3,4-d]pyridine-6,8(3H,7H)-dione] | B (B = 50-79% INHIBITION) | C (C = <50% INHIBITION) | C (C = <50% INHIBITION) | A (A = 80-100% INHIBITION) | A (A = 80-100% INHIBITION) | C (C = <50% INHIBITION)
4 | O=C1c2cnc3[nH]ncc3c2C(=O)N1Cc1cccnc1 [Example 38, 7-(pyridin-3-ylmethyl)pyrazolo[3,4-b]pyrrolo[3,4-d]pyridine-6,8(3H,7H)-dione] | A (A = 80-100% INHIBITION) | C (C = <50% INHIBITION) | A (A = 80-100% INHIBITION) | C (C = <50% INHIBITION) | A (A = 80-100% INHIBITION) | A (A = 80-100% INHIBITION)
5 | O=C1c2cnc3[nH]ncc3c2C(=O)N1Cc1ccncc1 [Example 43, 7-(pyridin-4-ylmethyl)pyrazolo[3,4-b]pyrrolo[3,4-d]pyridine-6,8(3H,7H)-dione] | A (A = 80-100% INHIBITION) | C (C = <50% INHIBITION) | C (C = <50% INHIBITION) | A (A = 80-100% INHIBITION) | A (A = 80-100% INHIBITION) | C (C = <50% INHIBITION)
6 | CC(C)(C)c1ccc(CN2C(=O)c3cnc4[nH]ncc4c3C2=O)cc1 [Example 47, 7-(4-tert-butylbenzyl)pyrazolo[3,4-b]pyrrolo[3,4-d]pyridine-6,8(3H,7H)-dione,] | C (C = <50% INHIBITION) | C (C = <50% INHIBITION) | C (C = <50% INHIBITION) | C (C = <50% INHIBITION) | C (C = <50% INHIBITION) | C (C = <50% INHIBITION)
7 | O=C1c2cnc3[nH]ncc3c2C(=O)N1Cc1c(F)ccc(F)c1Cl [Example 48, 7-(2-chloro-3,6-difluorobenzyl)pyrazolo[3,4-b]pyrrolo[3,4-d]pyridine-6,8(3H,7H)-dione] | B (B = 50-79% INHIBITION) | C (C = <50% INHIBITION) | C (C = <50% INHIBITION) | C (C = <50% INHIBITION) | A (A = 80-100% INHIBITION) | B (B = 50-79% INHIBITION)
8 | CC(CCN1C(=O)c2cnc3[nH]ncc3c2C1=O)c1ccccc1 (stereo not drawn) [Example 53, 7-(3-phenylbutyl)pyrazolo[3,4-b]pyrrolo[3,4-d]pyridine-6,8(3H,7H)-dione] | A (A = 80-100% INHIBITION) | C (C = <50% INHIBITION) | C (C = <50% INHIBITION) | A (A = 80-100% INHIBITION) | A (A = 80-100% INHIBITION) | C (C = <50% INHIBITION)
9 | O=C1c2cnc3[nH]ncc3c2C(=O)N1Cc1cc(Cl)ccc1Cl [Example 61, 7-(2,5-dichlorobenzyl)pyrazolo[3,4-b]pyrrolo[3,4-d]pyridine-6,8(3H,7H)-dione] | C (C = <50% INHIBITION) | C (C = <50% INHIBITION) | B (B = 50-79% INHIBITION) | C (C = <50% INHIBITION) | A (A = 80-100% INHIBITION) | B (B = 50-79% INHIBITION)
10 | CCCC(CCC)CN1C(=O)c2cnc3[nH]ncc3c2C1=O [Example 63, 7-(2-propylpentyl)pyrazolo[3,4-b]pyrrolo[3,4-d]pyridine-6,8(3H,7H)-dione] | A (A = 80-100% INHIBITION) | C (C = <50% INHIBITION) | C (C = <50% INHIBITION) | A (A = 80-100% INHIBITION) | A (A = 80-100% INHIBITION) | C (C = <50% INHIBITION)
11 | Cc1ccc(CCN2C(=O)c3cnc4[nH]ncc4c3C2=O)cc1 [Example 69, 7-[2-(4-methylphenyl)ethyl]pyrazolo[3,4-b]pyrrolo[3,4-d]pyridine-6,8(3H,7H)-dione] | C (C = <50% INHIBITION) | C (C = <50% INHIBITION) | C (C = <50% INHIBITION) | C (C = <50% INHIBITION) | C (C = <50% INHIBITION) | C (C = <50% INHIBITION)
12 | COc1c(C)cnc(CN2C(=O)c3cnc4[nH]ncc4c3C2=O)c1C [Example 72, 7-[(4-methoxy-3,5-dimethylpyridin-2-yl)methyl]pyrazolo[3,4-b]pyrrolo[3,4-d]pyridine-6,8(3H,7H)-dione] | C (C = <50% INHIBITION) | C (C = <50% INHIBITION) | C (C = <50% INHIBITION) | A (A = 80-100% INHIBITION) | A (A = 80-100% INHIBITION) | A (A = 80-100% INHIBITION)
13 | O=C1c2cnc3[nH]ncc3c2C(=O)N1CC1CCC1 [Example 76, 7-(cyclobutylmethyl)pyrazolo[3,4-b]pyrrolo[3,4-d]pyridine-6,8(3H,7H)-dione] | C (C = <50% INHIBITION) | C (C = <50% INHIBITION) | C (C = <50% INHIBITION) | C (C = <50% INHIBITION) | C (C = <50% INHIBITION) | C (C = <50% INHIBITION)
14 | O=C1c2cnc3[nH]ncc3c2C(=O)N1CCc1cccc2ccccc12 [Example 77, 7-[2-(1-naphthyl)ethyl]pyrazolo[3,4-b]pyrrolo[3,4-d]pyridine-6,8(3H,7H)-dione] | A (A = 80-100% INHIBITION) | A (A = 80-100% INHIBITION) | A (A = 80-100% INHIBITION) | A (A = 80-100% INHIBITION) | A (A = 80-100% INHIBITION) | A (A = 80-100% INHIBITION)
15 | C[C@@H](CN1C(=O)c2cnc3[nH]ncc3c2C1=O)c1ccccc1 [Example 82, 7-[(2R)-2-phenylpropyl]pyrazolo[3,4-b]pyrrolo[3,4-d]pyridine-6,8(3H,7H)-dione] | C (C = <50% INHIBITION) | C (C = <50% INHIBITION) | C (C = <50% INHIBITION) | A (A = 80-100% INHIBITION) | A (A = 80-100% INHIBITION) | C (C = <50% INHIBITION)
16 | O=C1c2cnc3[nH]ncc3c2C(=O)N1CC1CCOC1 (stereo not drawn) [Example 85, 7-(tetrahydrofuran-3-ylmethyl)pyrazolo[3,4-b]pyrrolo[3,4-d]pyridine-6,8(3H,7H)-dione] | C (C = <50% INHIBITION) | C (C = <50% INHIBITION) | C (C = <50% INHIBITION) | C (C = <50% INHIBITION) | C (C = <50% INHIBITION) | C (C = <50% INHIBITION)
